System: Candida albicans ATCC 10231
Test: protective activity against opportunistic infections in immunosuppressed (5-FU pretreated) mice
Format: in vivo
Conditions: for Survivors at Day 15 / Survivors at Day 8: daily for eight days with 5-FU 25 mg/kg/day i.p., female ddY mice; for Survivors at Day 15: survivors/total 15 days after infection; for Survivors at Day 8: survivors/total eight days after infection
Procedure: The mice were then infected with Candida albicans ATCC 10231 (1×10^5cells or more) at 24 hours after the last treatment. One control group was administered 5-FU and saline solution and a second control group received neither 5-FU nor a thymic polypeptide prior to infection with Candida albicans.

In the case of “Thymosin β4: peptide containing 44 amino acid residues, isolated from calf thymus; contained in APF”, the “protective effects against infection” value (compared with the polypeptides of Thymosin Fraction 5, thymosin α1 and thymosin β8, 5-FU immunosuppressed mice) is reported as “of comparable similar magnitude”, the “Survivors at Day 15” value (dose 0.4 μg/kg/day) is reported as 6/10 and the “Survivors at Day 8” value (dose 0.4 μg/kg/day) is reported as 7/10. The “Survivors at Day 15” value (dose 4 μg/kg/day) was 5/10, the “Survivors at Day 8” value (dose 4 μg/kg/day) was 5/10 and the “Survivors at Day 15” value (dose 40 μg/kg/day) was 1/10. For the same substance, the “Survivors at Day 8” value (dose 40 μg/kg/day) was 1/10.

Reference: patent US4388234A, “Peptide isolation” (Hoffmann-La Roche Inc., priority 1981, dated 1983)
